In patent US20190110476A1, “NOVEL ISOTHIAZOLAMIDES, PROCESSES FOR THEIR PREPARATION AND THEIR USE AS FUNGICIDES” (priority 2014, published 2019):

Experiments:
[1] = Measurement of LogP values by HPLC on reversed phase columns (EEC directive 79/831 Annex V.A8); assay type: physicochemical; settings: for chromatographic logP: HPLC LC-UV, acidic range, 0.1% formic acid in water and acetonitrile as eluent
Method in brief: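 Following EEC directive 79/831 Annex V.A8, lipophilicity was derived from retention on reversed-phase HPLC columns. Separate values are given per diastereoisomer, and UV lambda-max (200–400 nm) was read at the peak signals.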

LogP [a] [1] | SMILES | further results
1.43^[a] | CS(C)=Nc1nsc(C(=O)NCc2cc(F)c(F)cc2F)c1F [II-072] | –
2.87^[a] | Cc1ccc(S(C)=Nc2nsc(C(=O)NCc3cc(F)c(F)cc3F)c2F)cc1 (centres unmarked) [II-073] | –
1.53^[a] | O=C(NCc1cc(F)c(F)cc1F)c1snc(N=S2CCCC2)c1F [II-074] | –
1.39^[a] | CS(C)=Nc1nsc(C(=O)NCc2ccc(F)c(F)c2F)c1F [II-076] | –
2.73^[a] | Cc1ccc(S(C)=Nc2nsc(C(=O)NCc3ccc(F)c(F)c3F)c2F)cc1 (centres unmarked) [II-077] | –
1.55^[a] | O=C(NCc1ccc(F)c(F)c1F)c1snc(N=S2CCCC2)c1F [II-078] | –
1.40^[a] | CS(C)=Nc1nsc(C(=O)NCc2c(F)cc(F)cc2F)c1F [II-079] | –
2.63^[a] | Cc1ccc(S(C)=Nc2nsc(C(=O)NCc3c(F)cc(F)cc3F)c2F)cc1 (centres unmarked) [II-080] | –
1.39^[a] | O=C(NCc1c(F)cc(F)cc1F)c1snc(N=S2CCCC2)c1F [II-081] | –
2.23^[a] | CCCS(C)=Nc1nsc(C(=O)NCC2CCCCC2)c1Cl (centres unmarked) [II-089] | –
1.94^[a] | CCS(C)=Nc1nsc(C(=O)NCC2CCCCC2)c1Cl (centres unmarked) [II-091] | –
2.07^[a] | CCCS(CC)=Nc1nsc(C(=O)NCC2CCCCC2)c1F (centres unmarked) [II-093] | –
4.69^[a] | O=C(NCCc1ccccc1)c1snc(N=C(c2ccccc2)c2ccccc2)c1Cl [II-095] | –
2.10^[a] | CCCS(CC)=Nc1nsc(C(=O)NCc2cc(F)c(F)cc2F)c1F (centres unmarked) [II-103] | –
1.96^[a] | CCCS(CC)=Nc1nsc(C(=O)NCc2ccc(F)c(F)c2F)c1F (centres unmarked) [II-104] | –
1.92^[a] | CCCS(CC)=Nc1nsc(C(=O)NCc2c(F)cc(F)cc2F)c1F (centres unmarked) [II-105] | –

Further lines, the compound ahead of its results:

SMILES | LogP [a] [1] | further results
Nc1nsc(C(=O)O)c1Br [E-VIII-015, 3-amino-4-bromo-1,2-thiazole-5-carboxylic acid] | – | melting point: 164.5 °C; chromatographic logP [1]: -0.07
COc1ccc(CNc2nsc(C(=O)N3CCc4ccccc43)c2Cl)cc1 [II-069] | 3.83 | LogP [b] [1]: 3.76
CS(C)=Nc1nsc(C(=O)NCC2CCCO2)c1F (centres unmarked) [II-070] | 0.44^[a] | –
CS(C)=Nc1nsc(C(=O)NCC2CCOC2)c1F (centres unmarked) [II-071] | 0.26^[a] | –
O=C(NCCC1CCCCC1)c1snc(N=C(c2ccccc2)c2ccccc2)c1Cl [II-083] | 5.92^[a] | –
O=C(NCC1CCCCC1)c1snc(N=S(Cc2ccccc2)Cc2ccccc2)c1Cl [II-084] | 4.38^[a] | –
CS(Cc1ccccc1Cl)=Nc1nsc(C(=O)NCC2CCCCC2)c1Cl (centres unmarked) [II-085] | 3.61^[a] | –
CCCS(CC)=Nc1nsc(C(=O)NCC2CCCCC2)c1Cl (centres unmarked) [II-086] | – | LogP [c] [1]: 1.90^[c]
O=C(NCC1CCCCC1)c1snc(N=S2CCCCC2)c1Cl [II-088] | 2.60^[a] | –
O=C(NCC1CCCCC1)c1snc(N=S2CCOCC2)c1Cl [II-090] | 2.49^[a] | –
O=C(NCC1CCCCC1)c1snc(N=S(c2ccccc2)c2ccccc2)c1Cl [II-092] | 4.77^[a] | –
CCCS(CC)=Nc1nsc(C(=O)NCc2ccc(F)cc2F)c1F (centres unmarked) [II-094] | 1.77^[a] | –
COc1ccc(CNc2nsc(C(=O)N3CCCc4ccccc43)c2Cl)cc1 [II-097] | 3.84^[a] | –
COc1ccc(CNc2nsc(C(=O)N3CCc4c(Cl)cccc4C3)c2Cl)cc1 [II-098] | 4.20^[a] | –
COc1ccc(CNc2nsc(C(=O)N3CCCc4cc(C)ccc43)c2Cl)cc1 [II-099] | 4.24 | LogP [b] [1]: 4.15
COc1ccc(CNc2nsc(C(=O)N3c4ccccc4CCC3C)c2Cl)cc1 (centres unmarked) [II-100] | 4.14 | LogP [b] [1]: 4.09
CC1CCc2ccccc2N1C(=O)c1snc(N)c1Cl (centres unmarked) [II-101] | 2.48 | LogP [b] [1]: 2.39
COc1ccc(CNc2nsc(C(=O)N3CCCC3)c2Cl)cc1 [II-102] | 2.72 | LogP [b] [1]: 2.66
COc1ccc(CNc2nsc(C(N)=O)c2Cl)cc1 [II-106] | 1.94^[a] | –
O=C(Nc1ccccc1)c1snc(N=C(c2ccccc2)c2ccccc2)c1Cl [II-107] | 4.62^[a] | –
COc1ccc(CNc2nsc(C(=O)N3CCCCC3)c2Cl)cc1 [II-108] | 3.22 | LogP [b] [1]: 3.16
c1ccc(CN(Cc2ccccc2)c2ccsn2)cc1 [Z-A-001, N,N-dibenzyl-1,2-thiazol-3-amine] | – | chromatographic logP [1]: 4.13
O=C(Nc1nscc1Cl)c1ccc(F)cc1 [Z-A-002] | 1.74^[a] | –
CC(C)(C)C(=O)Nc1nscc1Cl [Z-A-004] | 1.55^[a] | –
COc1ccc(CNc2nscc2Cl)cc1 [Z-A-005] | 3.00^[a] | –
COc1ccc(CN(Cc2ccccc2)c2nscc2Cl)cc1 [Z-A-007] | 5.03^[a] | –
COc1ccc(CN(Cc2ccc(C)cc2)c2nscc2Cl)cc1 [Z-A-008] | 5.48^[a] | –
